Results: patent US10525055B2, “Opioid receptor antagonist prodrugs” (Nirsum Laboratories, Inc., priority 2017, dated 2020)

Experiments:
[1] = Polymorph screening of solid state drug substances; conditions: for XRPD results (Dried): stirred 50 °C 72 hours, solids dried; for Visual observation 50° C. / Visual observation RT: target conc. 100 mg/ml; for Comment: stability of initial crystal form (pattern A): polymorph screen over Heptane
[2] = Plasma stability assay, rat plasma; format: in vitro ADME; conditions: 37° C., 10 μM
[3] = Solubility determination in oil (cottonseed oil, sesame oil); conditions: heating temp. 60 °C
Procedure: A known amount of test substance (˜40 mg) was weighed into the vial, 100 μL of oil was added and heated to 60° C. and then system was slurried to reach equilibrium. […] Extra oil was added into the vial once compound precipitated out and then the system was re-equilibrated at 1000 rpm at room temperature (25° C.). Final concentration was determined by HPLC method as described below in Table 6a and 6b.

[4] = Physical characterization of solid state drug substance (PLM, XRPD, DSC, TGA); format: physicochemical; conditions: for Thermal Gravimetric Analysis, weight loss: at 120° C., heated from room temperature at 10° C./minute
Procedure: The analysis of the physical characteristics of drug substances that were in a solid state was conducted using polarized light microscopy (PLM), X-ray powder diffractometer (XRPD) assessment, Differential Scanning calorimetry (DSC) and Thermal Gravimetric Analysis (TGA). For PLM, samples were dispersed in immersion oil and were observed using an ocular lens (10×) and objective lens (20×) under crossed polarizers. For XRPD, samples were run on a diffractometer using the following method: Tube—Cu: K-alpha (λ=1.54179 Å); Generator—Voltage 40 kV, Current 40 mA; Scan scope—3 to 40°; sample rotation speed—15 rpm; scanning rate—10 deg/min. For DSC, ˜1 mg of sample was tested using a crimped aluminum pan and covered by a lid with a hole, heated from room temperature to 300° C. at a speed of 10° C./minute. For TGA, 2-5 mg of sample was placed in an open platinum pan and heated from room temperature to 300° C. at a rate of 10° C./minute.

[5] = MTBE, Isopropanol, EtOAc, Acetone

Q: With `CCCCCCCCCCCCCCCC(=O)Oc1ccc2c3c1O[C@H]1C(=O)CC[C@@]4(O)C(C2)N(CC2CC2)CC[C@]314` [Compound 55, (4aS,7aR,12bS)-3-(cyclopropylmethyl)-4a-hydroxy-7-oxo-2,3,4,4a,5,6,7,7a-octahydro-1H-4,12-methanobenzofuro[3,2-e]isoquinolin-9-yl palmitate] as the compound, how does the “XRPD results (Dried)” value ([1]; Acetone) read?
A: Pattern B

Q: And the “Visual observation 50° C.” value ([1]; Acetone)?
A: Clear

Q: And the “Visual observation RT” value ([1]; Acetone)?
A: Slurry

Q: And the “XRPD results (Dried)” value ([1]; EtOAc)?
A: Pattern B

Q: What about the “Visual observation 50° C.” value ([1]; EtOAc) of the same compound?
A: Clear

Q: And the “Visual observation RT” value ([1]; EtOAc)?
A: Slurry

Q: What about the “XRPD results (Dried)” value ([1]; Heptane) of the same compound?
A: Pattern B

Q: What about the “Visual observation 50° C.” value ([1]; Heptane) of the same compound?
A: Clear

Q: And the “Visual observation RT” value ([1]; Heptane)?
A: Slurry

Q: And the “XRPD results (Dried)” value ([1]; Isopropanol)?
A: Pattern B

Q: What about the “Visual observation 50° C.” value ([1]; Isopropanol) of the same compound?
A: Clear

Q: What about the “Visual observation RT” value ([1]; Isopropanol) of the same compound?
A: Slurry

Q: What about the “XRPD results (Dried)” value ([1]; MTBE) of the same compound?
A: Pattern B

Q: And the “Visual observation 50° C.” value ([1]; MTBE)?
A: Clear

Q: And the “Visual observation RT” value ([1]; MTBE)?
A: Clear

Q: And the “Comment: stability of initial crystal form (pattern A)” value (shortened to “Comment: stability”) [1, 5]?
A: Cannot determine which crystal form

Q: What about the “% remaining at time point in minutes, 0 min” value [2] of the same compound?
A: 100%

Q: What about the “% remaining at time point in minutes, 15 min” value (“% remaining … 15 min” below) [2] of the same compound?
A: 77.3%

Q: What about the “% remaining at time point in minutes, 120 min” value (shortened to “% remaining … 120 min”) [2] of the same compound?
A: 47.2%

Q: What about the “% remaining at time point in minutes, 480 min” value (from here on “% remaining … 480 min”) [2] of the same compound?
A: 27.1%

Q: And the “% remaining at time point in minutes, 1440 min” value (“% remaining … 1440 min” for short) [2]?
A: 15.6%

Q: What about the “Approximate Solubility (mg/mL) in Excipient: Ethanol” value ([3]; Ethanol, obs. temp. 40 °C) of the same compound?
A: >401.1 mg/mL

Q: What about the “Approximate Solubility (mg/mL) in Excipient: Sesame oil” value ([3]; obs. temp. 40 °C) of the same compound?
A: >394.8 mg/mL

Q: What about the “Thermal Gravimetric Analysis, weight loss” value [4] of the same compound?
A: Weight loss of 0.2597%

Q: Which results are given for `C=C1CC[C@@]2(O)C3Cc4ccc(OC(=O)OCCCCCCCCCCCCCC)c5c4[C@@]2(CCN3CC2CC2)[C@H]1O5` [Compound 31, (4aS,7aS,12bS)-3-(cyclopropylmethyl)-4a-hydroxy-7-methylene-2,3,4,4a,5,6,7,7a-octahydro-1H-4,12-methanobenzofuro[3,2-e]isoquinolin-9-yl tetradecyl carbonate]?
A: XRPD results (Dried) ([1]; Acetone): Pattern A; Visual observation 50° C. ([1]; Acetone): Clear; Visual observation RT ([1]; Acetone): Slurry; XRPD results (Dried) ([1]; EtOAc): Pattern A; Visual observation 50° C. ([1]; EtOAc): Clear; Visual observation RT ([1]; EtOAc): Clear; XRPD results (Dried) ([1]; Heptane): Pattern A; Visual observation 50° C. ([1]; Heptane): Clear; Visual observation RT ([1]; Heptane): Slurry; XRPD results (Dried) ([1]; Isopropanol): Pattern A; Visual observation 50° C. ([1]; Isopropanol): Clear; Visual observation RT ([1]; Isopropanol): Clear; XRPD results (Dried) ([1]; MTBE): Pattern A; Visual observation 50° C. ([1]; MTBE): Clear; Visual observation RT ([1]; MTBE): Slurry; % remaining at time point in minutes, 0 min [2]: 100%; % remaining at time point in minutes, 15 min [2]: 123.2%; % remaining at time point in minutes, 120 min [2]: 73.5%; % remaining at time point in minutes, 480 min [2]: 54.4%; % remaining at time point in minutes, 1440 min [2]: 46.4%; Approximate Solubility (mg/mL) in Excipient: Sesame oil ([3]; obs. temp. 25 °C): >413.5 mg/mL; Thermal Gravimetric Analysis, weight loss [4]: Weight loss of 0.7244%

Q: For `CCCCCCCCCCOC(=O)Oc1ccc2c3c1O[C@H]1C(=O)CC[C@@]4(O)C(C2)N(CC2CC2)CC[C@]314` [Compound 10, (4aS,7aR,12bS)-3-(cyclopropylmethyl)-4a-hydroxy-7-oxo-2,3,4,4a,5,6,7,7a-octahydro-1H-4,12-methanobenzofuro[3,2-e]isoquinolin-9-yl decyl carbonate], which “XRPD results (Dried)” value ([1]; Acetone) is on record?
A: Pattern A

Q: And the “Visual observation 50° C.” value ([1]; Acetone)?
A: Clear

Q: What about the “Visual observation RT” value ([1]; Acetone) of the same compound?
A: Slurry

Q: And the “XRPD results (Dried)” value ([1]; EtOAc)?
A: Pattern A

Q: And the “Visual observation 50° C.” value ([1]; EtOAc)?
A: Clear

Q: And the “Visual observation RT” value ([1]; EtOAc)?
A: Slurry

Q: And the “XRPD results (Dried)” value ([1]; Heptane)?
A: Pattern A

Q: And the “Visual observation 50° C.” value ([1]; Heptane)?
A: Slurry

Q: And the “Visual observation RT” value ([1]; Heptane)?
A: Slurry

Q: And the “XRPD results (Dried)” value ([1]; Isopropanol)?
A: Pattern A

Q: And the “Visual observation 50° C.” value ([1]; Isopropanol)?
A: Clear

Q: And the “Visual observation RT” value ([1]; Isopropanol)?
A: Slurry

Q: What about the “XRPD results (Dried)” value ([1]; MTBE) of the same compound?
A: Pattern A

Q: What about the “Visual observation 50° C.” value ([1]; MTBE) of the same compound?
A: Clear

Q: What about the “Visual observation RT” value ([1]; MTBE) of the same compound?
A: Clear

Q: What about the “Comment: stability” value [1, 5] of the same compound?
A: stable form. Same form (pattern A)

Q: And the “% remaining at time point in minutes, 0 min” value [2]?
A: 100%

Q: What about the “% remaining … 15 min” value [2] of the same compound?
A: 0%

Q: And the “% remaining … 120 min” value [2]?
A: 0%

Q: And the “% remaining … 480 min” value [2]?
A: 0%

Q: What about the “% remaining … 1440 min” value [2] of the same compound?
A: 0%

Q: What about the “Thermal Gravimetric Analysis, weight loss” value [4] of the same compound?
A: Weight loss of 0.3047%

Q: What does the source list for `C=C1CC[C@@]2(O)C3Cc4ccc(OC(=O)OCCCCCCCCCCCCCCCC)c5c4[C@@]2(CCN3CC2CC2)[C@H]1O5` [Compound 19, (4aS,7aS,12bS)-3-(cyclopropylmethyl)-4a-hydroxy-7-methylene-2,3,4,4a,5,6,7,7a-octahydro-1H-4,12-methanobenzofuro[3,2-e]isoquinolin-9-yl hexadecyl carbonate]?
A: XRPD results (Dried) ([1]; Acetone): Pattern A; Visual observation 50° C. ([1]; Acetone): Clear; Visual observation RT ([1]; Acetone): Slurry; XRPD results (Dried) ([1]; EtOAc): Pattern A; Visual observation 50° C. ([1]; EtOAc): Clear; Visual observation RT ([1]; EtOAc): Slurry; XRPD results (Dried) ([1]; Heptane): Pattern A; Visual observation 50° C. ([1]; Heptane): Clear; Visual observation RT ([1]; Heptane): Slurry; XRPD results (Dried) ([1]; Isopropanol): Pattern A; Visual observation 50° C. ([1]; Isopropanol): Clear; Visual observation RT ([1]; Isopropanol): Slurry; XRPD results (Dried) ([1]; MTBE): Pattern A; Visual observation 50° C. ([1]; MTBE): Clear; Visual observation RT ([1]; MTBE): Clear; Comment: stability of initial crystal form (pattern A) [1, 5]: to be stable fomr. Same crystal form; % remaining at time point in minutes, 0 min [2]: 100%; % remaining at time point in minutes, 15 min [2]: 70.1%; % remaining at time point in minutes, 120 min [2]: 71.5%; % remaining at time point in minutes, 480 min [2]: 43.8%; % remaining at time point in minutes, 1440 min [2]: 33.3%; Thermal Gravimetric Analysis, weight loss [4]: Weight loss of 0.1623%

Q: For `C=C1CC[C@@]2(O)C3Cc4ccc(OC(=O)CCCCCCCCCCCCCCC)c5c4[C@@]2(CCN3CC2CC2)[C@H]1O5` [Compound 56, (4aS,7aS,12bS)-3-(cyclopropylmethyl)-4a-hydroxy-7-methylene-2,3,4,4a,5,6,7,7a-octahydro-1H-4,12-methanobenzofuro[3,2-e]isoquinolin-9-yl palmitate, reference compound], which “% remaining at time point in minutes, 0 min” value [2] is on record?
A: 100%

Q: And the “% remaining … 15 min” value [2]?
A: 73.1%

Q: And the “% remaining … 120 min” value [2]?
A: 56.7%

Q: And the “% remaining … 480 min” value [2]?
A: 35.8%

Q: What about the “% remaining … 1440 min” value [2] of the same compound?
A: 16.8%

Q: And the “Thermal Gravimetric Analysis, weight loss” value [4]?
A: Weight loss of 0.1815%

Q: Which “XRPD results (Dried)” value ([1]; Acetone) does the source give for `CCCCCCCCCCCCCCCCOC(=O)Oc1ccc2c3c1O[C@H]1C(=O)CC[C@@]4(O)C(C2)N(CC2CC2)CC[C@]314` [Compound 21, (4aS,7aR,12bS)-3-(cyclopropylmethyl)-4a-hydroxy-7-oxo-2,3,4,4a,5,6,7,7a-octahydro-1H-4,12-methanobenzofuro[3,2-e]isoquinolin-9-yl hexadecyl carbonate] here?
A: Pattern A

Q: And the “Visual observation 50° C.” value ([1]; Acetone)?
A: Clear

Q: What about the “Visual observation RT” value ([1]; Acetone) of the same compound?
A: Slurry

Q: What about the “XRPD results (Dried)” value ([1]; EtOAc) of the same compound?
A: Pattern A

Q: What about the “Visual observation 50° C.” value ([1]; EtOAc) of the same compound?
A: Clear

Q: And the “Visual observation RT” value ([1]; EtOAc)?
A: Slurry

Q: What about the “XRPD results (Dried)” value ([1]; Heptane) of the same compound?
A: Pattern A

Q: And the “Visual observation 50° C.” value ([1]; Heptane)?
A: Clear

Q: And the “Visual observation RT” value ([1]; Heptane)?
A: Slurry

Q: And the “XRPD results (Dried)” value ([1]; Isopropanol)?
A: Pattern A

Q: What about the “Visual observation 50° C.” value ([1]; Isopropanol) of the same compound?
A: Clear

Q: And the “Visual observation RT” value ([1]; Isopropanol)?
A: Slurry

Q: What about the “XRPD results (Dried)” value ([1]; MTBE) of the same compound?
A: Pattern A

Q: What about the “Visual observation 50° C.” value ([1]; MTBE) of the same compound?
A: Clear

Q: What about the “Visual observation RT” value ([1]; MTBE) of the same compound?
A: Clear

Q: What about the “Comment: stability” value [1, 5] of the same compound?
A: stable form. Same crystal form

Q: And the “% remaining at time point in minutes, 0 min” value [2]?
A: 100%

Q: And the “% remaining … 15 min” value [2]?
A: 73.5%

Q: What about the “% remaining … 120 min” value [2] of the same compound?
A: 68.3%

Q: And the “% remaining … 480 min” value [2]?
A: 59.8%

Q: What about the “% remaining … 1440 min” value [2] of the same compound?
A: 40.9%

Q: And the “Approximate Solubility (mg/mL) in Excipient: Sesame oil” value ([3]; obs. temp. 40 °C)?
A: 101 to 134.5 mg/mL

Q: What about the “X-ray Powder Diffraction” value ([4]; solid state drug substance, XRPD/PLM) of the same compound?
A: Crystal Form with partial
